In data set [1] the target is Recombinant Human Insulin (Homo sapiens, UniProt P01308). The data set is described as follows: Insulin stabilization at 90° C. (native gel). As to conditions: 90° C. for 1 h; insulin 1 mg/mL; 750 equiv of trehalose. As to the method:
Prepared P1, P2, P3, and the same concentration of trehalose as an additive were tested for stabilization of insulin against heating under 90° C. for 1 h. After heating all the samples were loaded on the native gel (FIG. 30). Insulin without any additive was denatured and the band was almost gone in native gel. […] The MALDI-TOF data provides that insulin, originally 5.8 kDa, denatures into mainly two fragments after heating (data not shown). This is due to the breakage of two disulfide bridges liking a and β chain of insulin.
Insulin was dissolved in pH 7.4 D-PBS buffer (1 mg/mL). The samples were prepared by adding 10 equiv of P1, P2, and P3 or 750 equiv of trehalose into the insulin solution. […] Other samples with polymers or trehalose were heated as 90° C. for 1 h and ran through the native gel.

Another data set has as its target glucose oxidase (GOX) (Aspergillus niger, UniProt P13006). Nature of the data set: Glucose oxidase stabilization at 50° C. (Amplex Red assay). In kind it is biochemical. The conditions noted are these: 50° C. for 30 min; GOX 0.1 mg/mL; 7500 equivalent of trehalose. The protocol: Trehalose glycopolymers P1 through P4 were also tested for glucose oxidase (GOX) stabilization against 50° C. heat for 30 min. The activity of GOX was evaluated using Amplex® Red Glucose/Glucose Oxidase Assay Kit (Invitrogen). GOX reacts with D-glucose to form H2O2, which can then react with the Amplex® in the presence of horseradish peroxidase (HRP) to generate resorufin and can be detected by fluorescence. GOX samples were prepared without any additive, with 100 equivalent of P1-P4, and 7500 equivalent of trehalose, which is equal to the number of repeating units in the P1. All samples were heated to 50° C. for 30 min and repeated six times. Heated samples were then tested for GOX reactivity and percent original activities were calculated using same concentration of GOX without heating and additive (FIG. 29).
2 μL aliquots of GOX solution were mixed with 2 μL aliquots of each polymer and trehalose solution or buffer only to give the final concentration of 0.1 mg/mL GOX. […] Activity was measured using Amplex® Red Glucose/Glucose Oxidase Assay kit following the product manual procedures.

Data set [2] deals with horseradish peroxidase (HRP). Nature of the data set: Horseradish peroxidase stabilization at 70° C. (TMB activity). In kind it is biochemical. As to conditions: 70° C. for 30 min; HRP 75 μg/mL; 7500 equivalent of trehalose. As to the method:
The activity of horseradish peroxidase (HRP) after exposure to a temperature of 70° C. for 30 minutes was tested, and the results are provided in FIG. 28. The activity of HRP was tested through reaction with 3,3′,5,5′-tetramethylbenzidine (TMB), which produces a blue by-product. HRP samples were prepared without any additive, with 100 equivalent of P1-P4, or 7500 equivalent of trehalose, which is equal to the trehalose in the P1 sample. Heated samples were then tested for HRP reactivity and the percent original activities were calculated using same concentration of HRP without heating and additive (FIG. 28). After heating, HRP in solution without any additive, only 46% of the original activity was observed. […] The same concentration of trehalose maintained only 80% of HRP activity. All samples were repeated six times and their p value compared with no additive were <0.001.
Horseradish Peroxidase Stabilized by P1-P4 at 70° C. […] Stock solutions of 100 equiv of P1, P2, P3 and P4 and 7500 equiv of trehalose were also prepared in the same buffer. 2 μL aliquots of HRP solution were mixed with 2 μL aliquots of each polymer and trehalose solution to give final concentration of 75 μg/mL HRP or with only buffer. […] The assay was repeated 6 times following the know procedure with tetramethylbenzemidine (TMB).

Data set [3] has as its target T1, hen egg white lysozyme (Gallus gallus, UniProt P00698).
T1 construct: reconstituting hen egg white lysozyme (0.1 mg/mL, DPBS, pH 7.4) as received without further purification; purchased Sigma-Aldrich; host or cells: hen egg white
The data set is described as follows: Thermo-stability (heat burden) assay, 90° C., EnzChek lysozyme activity. In kind it is biochemical. As to the method: Lysozyme-glycopolymer conjugate (Lyz-6). To a 1.5 mL Lo-Bind® centrifuge tube was added thiopropionyl hen egg white lysozyme (LyzSH) (70 μL, 10 mg/mL, DPBS, pH 8.0) and 6 (16 mg, 0.71 μmol, 15 eq) and the entire reaction was diluted to a final volume of 500 μL (DPBS, pH 8.0) before storage at 4° C. for 3 hours. The resulting mixture was purified by FPLC (50 mM PB, 150 mM NaCl, pH 7.4), fractions were concentrated by centriprep ultrafiltration (MWCO 3 kDa, DPBS, pH 7.4) and stored at 4° C. Samples were diluted 5 fold before the EnzChek® lysozyme activity assay was employed to measure fraction activity. In a typical assay 50 μL of diluted sample was incubated with 50 μL of Micrococcus luteus labeled with FITC (1 mg/mL) at 37° C. for 1 hour. Subsequently, fluorescence of lysed cell membrane and thus lysozyme activity was measured as FITC fluorescence (abs 480 nm/em 530 nm) and quantified relative to known standards. […]
Wild-type lysozyme was prepared by reconstituting hen egg white lysozyme (0.1 mg/mL, DPBS, pH 7.4) as received and was stored without further purification at 4° C. in 20 μL aliquots. […] Activities of stressed samples were measured relative to identical aliquots that were not exposed to heat. […] Statistics were calculated utilizing the Students t test; % confidence as +/−=t*(standard deviation)/(number of trials)^(½) with p<1−% confidence/100.

Data set [4] addresses T1, hen egg white lysozyme. The data set is described as follows: Lyophilization stability activity assay (10 lyophilization cycles, EnzChek lysozyme activity). In kind it is biochemical. The protocol:
Lysozyme-glycopolymer conjugate (Lyz-6). To a 1.5 mL Lo-Bind® centrifuge tube was added thiopropionyl hen egg white lysozyme (LyzSH) (70 μL, 10 mg/mL, DPBS, pH 8.0) and 6 (16 mg, 0.71 μmol, 15 eq) and the entire reaction was diluted to a final volume of 500 μL (DPBS, pH 8.0) before storage at 4° C. for 3 hours. The resulting mixture was purified by FPLC (50 mM PB, 150 mM NaCl, pH 7.4), fractions were concentrated by centriprep ultrafiltration (MWCO 3 kDa, DPBS, pH 7.4) and stored at 4° C. Samples were diluted 5 fold before the EnzChek® lysozyme activity assay was employed to measure fraction activity. In a typical assay 50 μL of diluted sample was incubated with 50 μL of Micrococcus luteus labeled with FITC (1 mg/mL) at 37° C. for 1 hour. Subsequently, fluorescence of lysed cell membrane and thus lysozyme activity was measured as FITC fluorescence (abs 480 nm/em 530 nm) and quantified relative to known standards.
Wild-type lysozyme was prepared by reconstituting hen egg white lysozyme (0.1 mg/mL, 1 eq, DPBS, pH 7.4) as received without further purification. Samples were further diluted to 0.021 mg/mL (1 kU/mL) in 20 μL aliquots prior to application of lyophilization or thermal insults.
Wild-type lysozyme samples mixed with glyco-polymer were prepared by adding trehalose polymer (Poly 5-8, 1 or 100 eq relative to lysozyme) to a solution of lysozyme (0.1 mg/mL, DPBS, pH 7.4) before storage at 4° C. Samples were further diluted to a lysozyme concentration of 0.021 mg/mL (1 kU/mL) in 20 μL aliquots prior to application of lyophilization or thermal insult.
Wild-type lysozyme samples mixed with trehalose were prepared by adding trehalose (1 or 100 eq relative to the number of trehalose monomer units in Poly 5-8) to a solution of lysozyme (0.1 mg/mL, DPBS, pH 7.4) before storage at 4° C. […]
Wild-type lysozyme was prepared by reconstituting hen egg white lysozyme (0.1 mg/mL, DPBS, pH 7.4) as received without further purification. […] Statistics were calculated utilizing the Students t test; % confidence as +/−=t*(standard deviation)/(number of trials)^(½) with p<1−% confidence/100.

The test system of the next data set is β-galactosidase (β-Gal). The conditions noted are these: lyophilization cycles; β-Gal 0.1 mg/mL; 7500 equiv of trehalose.

T1 sequence (P00698 19-147): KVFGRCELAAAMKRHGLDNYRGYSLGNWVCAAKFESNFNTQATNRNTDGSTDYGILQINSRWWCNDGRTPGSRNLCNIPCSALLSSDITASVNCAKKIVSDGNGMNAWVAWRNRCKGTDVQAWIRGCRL
Chain of Recombinant Human Insulin (P01308 25-54 limits assumed): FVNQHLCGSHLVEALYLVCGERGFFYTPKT
Chain of Recombinant Human Insulin (P01308 90-110 limits assumed): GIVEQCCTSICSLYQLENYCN
Chain of glucose oxidase (GOX) (P13006 17-605, species assumed): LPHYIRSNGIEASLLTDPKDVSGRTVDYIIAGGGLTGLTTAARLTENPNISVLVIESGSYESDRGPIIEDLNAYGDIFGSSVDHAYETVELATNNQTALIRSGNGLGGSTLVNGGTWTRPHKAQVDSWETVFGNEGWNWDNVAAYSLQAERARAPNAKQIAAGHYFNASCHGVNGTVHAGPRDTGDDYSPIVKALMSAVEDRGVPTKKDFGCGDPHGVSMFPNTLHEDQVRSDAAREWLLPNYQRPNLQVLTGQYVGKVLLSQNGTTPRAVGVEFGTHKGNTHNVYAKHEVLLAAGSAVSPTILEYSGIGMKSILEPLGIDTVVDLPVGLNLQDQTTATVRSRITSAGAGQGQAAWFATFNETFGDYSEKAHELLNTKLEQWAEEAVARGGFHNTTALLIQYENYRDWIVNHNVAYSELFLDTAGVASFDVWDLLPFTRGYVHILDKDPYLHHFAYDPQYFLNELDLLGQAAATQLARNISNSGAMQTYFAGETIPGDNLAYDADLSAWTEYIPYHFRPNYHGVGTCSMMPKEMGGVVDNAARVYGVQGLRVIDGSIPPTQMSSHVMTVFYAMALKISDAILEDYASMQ
Procedure for β-galactosidase (β-Gal): The stabilization of β-galactosidase (β-Gal) was also tested after multiple lyophilization cycles. β-Gal is known to be easily denatured by lyophilization or freeze-thaw cycles (Pikal-Cleland and Capenter, 2001). Activity of β-Gal was measured by reacting with o-nitrophenyl-β-D-galactoside (ONPG), which releases o-nitrophenol, a yellow color product that absorbs light at 420 nm.
0.4 mg/mL P3-Gal solution was prepared in pH 7.0 10 mM sodium phosphate buffer. 50 μL aliquots of β-Gal solution were mixed with 150 μL of buffer or 150 μL of polymer (100 equiv) or trehalose (7500 equiv) in H2O to result 0.1 mg/mL protein solution. Aliquots of each sample were frozen by immersion in liquid nitrogen before lyophilization. The samples were lyophilized for 12 h for one cycle under 1 mbar. After each cycle 200 μL of H2O was added and the lyophilization repeated for 3 cycles and 4 cycles. The control was stored in 4° C. until the activity assay was performed. The assay includes 6 repeats by reacting with o-nitrophenyl-β-D-galactoside (ONPG).

Take `OC[C@H]1O[C@H](O[C@H]2O[C@H](CO)[C@@H](O)[C@H](O)[C@H]2O)[C@H](O)[C@@H](O)[C@@H]1O` [trehalose]: the “insulin band on native gel after heating” value in data set [1] is recorded as “greatly reduced”. For the same molecule, the “percent original GOX activity” value on glucose oxidase (GOX) was found to be 72%. For the same molecule, the “percent original HRP activity” value in data set [2] was 80%. Further, the “activity retention with added trehalose” value at hen egg white lysozyme [3] (90° C. for 1 hour, highest trehalose concentration (100 eq Poly8 monomer units)) is 31%. The “retention of lysozyme activity with added trehalose” value at hen egg white lysozyme [4] (trehalose at equivalent concentrations to that in the 100-fold polymers) is recorded as 18-31%. Besides, in the data set on β-galactosidase (β-Gal), the “β-Gal original activity maintained” value turned out to be 45%.
With “wild-type lysozyme: hen egg white lysozyme reconstituted as received, unmodified”, in the data set with hen egg white lysozyme [3] (90° C. for 3 hours, 0.1 mg/mL, conjugate or protein alone), the “remaining activity after heat burden” value is “no activity remained”. In the data set with hen egg white lysozyme [4] (0.1 mg/mL, DPBS pH 7.4, conjugate or protein alone, no additive), the “activity relative to unexposed sample stored at 4° C.” value was around 20%. Also, in the data set with hen egg white lysozyme [4] (lysozyme 0.021 mg/mL (1 kU/mL), conjugate or protein alone), the “retention of original activity” value came to 16%.

For the origin of these results see patent US9901648B2, “Stabilization of biomolecules using sugar polymers” (THE REGENTS OF THE UNIVERSITY OF CALIFORNIA, priority 2012, dated 2018).
